Here are results for 7 molecules from ChEMBL document CHEMBL5303573, “Mapping human microbiome drug metabolism by gut bacteria and their genes” (Nature, 2019).

Data set [1] in a line: The drug is tested on Bifidobacterium breve strain: DSM20213 for biotransformation. The drug concentrations were measured before and after a 12-h incubation by liquid-chromatography-coupled mass spectrometry (LC–MS). Particulars: 2 µM.
The nature of data set [2]: The drug is tested on Collinsella aerofaciens strain: ATCC25986 for biotransformation. The drug concentrations were measured before and after a 12-h incubation by liquid-chromatography-coupled mass spectrometry (LC–MS). As to conditions: 2 µM.
A short description of data set [3]: The drug is tested on Bacteroides cellulosilyticus strain: DSM14838 for biotransformation. The drug concentrations were measured before and after a 12-h incubation by liquid-chromatography-coupled mass spectrometry (LC–MS). Particulars: 2 µM.
Data set [4] is described as follows: The drug is tested on Bacteroides coprophilus strain: DSM18228 for biotransformation. The drug concentrations were measured before and after a 12-h incubation by liquid-chromatography-coupled mass spectrometry (LC–MS). As to conditions: 2 µM.
The nature of data set [5]: The drug is tested on Bacteroides vulgatus strain: ATCC8482 for biotransformation. The drug concentrations were measured before and after a 12-h incubation by liquid-chromatography-coupled mass spectrometry (LC–MS). As to conditions: phocaeicola vulgatus, 2 µM.
The nature of data set [6]: The drug is tested on Blautia hansenii strain: DSM20583 for biotransformation. The drug concentrations were measured before and after a 12-h incubation by liquid-chromatography-coupled mass spectrometry (LC–MS). As to conditions: 2 µM.
Data set [7] can be described thus: The drug is tested on Clostridium ramosum strain: DSM1402 for biotransformation. The drug concentrations were measured before and after a 12-h incubation by liquid-chromatography-coupled mass spectrometry (LC–MS). As to conditions: thomasclavelia ramosa, 2 µM.
Data set [8] in a line: The drug is tested on Clostridium sporogenes strain: ATCC15579 for biotransformation. The drug concentrations were measured before and after a 12-h incubation by liquid-chromatography-coupled mass spectrometry (LC–MS). Particulars: 2 µM.
The nature of data set [9]: The drug is tested on Clostridium symbiosum strain: ATCC14940 for biotransformation. The drug concentrations were measured before and after a 12-h incubation by liquid-chromatography-coupled mass spectrometry (LC–MS). As to conditions: 2 µM.
Data set [10] in a line: The drug is tested on Eubacterium hallii strain: DSM3353 for biotransformation. The drug concentrations were measured before and after a 12-h incubation by liquid-chromatography-coupled mass spectrometry (LC–MS). Particulars: anaerobutyricum hallii, 2 µM.
The nature of data set [11]: The drug is tested on Eubacterium rectale strain: ATCC33656 for biotransformation. The drug concentrations were measured before and after a 12-h incubation by liquid-chromatography-coupled mass spectrometry (LC–MS). Particulars: agathobacter rectalis, 2 µM.
The nature of data set [12]: The drug is tested on Edwardsiella tarda strain: ATCC23685 for biotransformation. The drug concentrations were measured before and after a 12-h incubation by liquid-chromatography-coupled mass spectrometry (LC–MS). As to conditions: 2 µM.
The conditions of data set [13]: bacteroides fragilis, 12 h, 2 µM.
Description: The drug is tested on Bacteroides fragilis strain: 3397 (T10) for biotransformation. The drug concentrations were measured before and after a 12-h incubation by liquid-chromatography-coupled mass spectrometry (LC–MS)
For data set [14] the following is noted: bacteroides fragilis, 12 h, 2 µM. This is another data set of the same source.
Description: The drug is tested on Bacteroides fragilis strain: DS-208 for biotransformation. The drug concentrations were measured before and after a 12-h incubation by liquid-chromatography-coupled mass spectrometry (LC–MS)
The conditions of data set [15]: bacteroides thetaiotaomicron, 12 h, 2 µM.
Description: The drug is tested on Bacteroides thetaiotaomicron strain: VPI-5482 for biotransformation. The drug concentrations were measured before and after a 12-h incubation by liquid-chromatography-coupled mass spectrometry (LC–MS)
The conditions of data set [16]: bacteroides thetaiotaomicron, 12 h, 2 µM. This is another data set of the same source.
Description: The drug is tested on Bacteroides thetaiotaomicron strain: 7330 for biotransformation. The drug concentrations were measured before and after a 12-h incubation by liquid-chromatography-coupled mass spectrometry (LC–MS)
The conditions of data set [17]: victivallis vadensis, 12 h, 2 µM.
Description: The drug is tested on Victivallis vadensis strain: ATCC BAA-548 for biotransformation. The drug concentrations were measured before and after a 12-h incubation by liquid-chromatography-coupled mass spectrometry (LC–MS)
A short description of data set [18]: The drug is tested on Bacteroides fragilis strain: ATCC43859 for biotransformation. The drug concentrations were measured before and after a 12-h incubation by liquid-chromatography-coupled mass spectrometry (LC–MS). Particulars: 2 µM.
Data set [19] can be described thus: The drug is tested on Bacteroides xylanisolvens strain: DSM18836 for biotransformation. The drug concentrations were measured before and after a 12-h incubation by liquid-chromatography-coupled mass spectrometry (LC–MS). As to conditions: 2 µM.
A short description of data set [20]: The drug is tested on Bacteroides fragilis strain: HMW610 for biotransformation. The drug concentrations were measured before and after a 12-h incubation by liquid-chromatography-coupled mass spectrometry (LC–MS). Particulars: 2 µM.

On to `OC(CCN1CCCCC1)(c1ccccc1)C1CC2C=CC1C2` (stereo not given) [BIPERIDEN], for which the “Bacterial Biotransformation” value in data set [1] is “Compound NOT metabolized”; in data set [2] it was “Compound NOT metabolized”; in data set [3], “Compound NOT metabolized”; in [4] it was “Compound NOT metabolized”; in data set [5], “Compound metabolized”; in [6] it was “Compound NOT metabolized”. Besides, the “Bacterial Biotransformation” value in data set [7], in data set [8], in [9], in data set [10], in [11] and in data set [12] was “Compound NOT metabolized” in each case. The “Bacterial Biotransformation” value in data set [13], in data set [14], in [15], in data set [16] and in data set [17] was “Compound NOT metabolized” in each case.
As for `CCOC(=O)[C@H](CCc1ccccc1)N[C@@H](C)C(=O)N1Cc2ccccc2C[C@H]1C(=O)O`, the “Bacterial Biotransformation” value in data set [1] is given as “Compound metabolized”; in [2] it was “Compound NOT metabolized”; in [3] it was “Compound metabolized”; in data set [4], “Compound metabolized”; in data set [18], “Compound metabolized”; in data set [5], “Compound metabolized”. Further, the “Bacterial Biotransformation” value was “Compound metabolized” in data set [19]; “Compound metabolized” in data set [6]; “Compound metabolized” in data set [9]; “Compound NOT metabolized” in data set [10]; “Compound NOT metabolized” in data set [11]; “Compound NOT metabolized” in data set [12]. Further, the “Bacterial Biotransformation” value is on record as “Compound metabolized” in [13]; “Compound metabolized” in [14]; “Compound metabolized” in data set [15]; “Compound metabolized” in data set [16]; “Compound NOT metabolized” in data set [17].
Regarding `CC(C)C[C@H]1C(=O)N2CCC[C@H]2[C@]2(O)O[C@](NC(=O)[C@@H]3C=C4c5cccc6[nH]c(Br)c(c56)C[C@H]4N(C)C3)(C(C)C)C(=O)N12.CS(=O)(=O)O` [BROMOCRIPTINE MESYLATE], the “Bacterial Biotransformation” value in [1], in [2], in data set [3], in data set [4], in [20] and in data set [5] was “Compound metabolized” in each case. Further, the “Bacterial Biotransformation” value in data set [19], in data set [6], in [7], in [8], in data set [9] and in [10] was “Compound metabolized” throughout. Also, the “Bacterial Biotransformation” value in data set [11], in data set [12], in [13], in [14], in data set [15] and in [16] was “Compound metabolized” each time. Besides, the “Bacterial Biotransformation” value in data set [17] is “Compound metabolized”.
For `CCOc1cc(CC(=O)N[C@@H](CC(C)C)c2ccccc2N2CCCCC2)ccc1C(=O)O` [REPAGLINIDE], the “Bacterial Biotransformation” value in data set [1], in data set [2], in data set [3], in data set [4], in data set [20] and in [18] was “Compound metabolized” each time. Also, the “Bacterial Biotransformation” value is “Compound NOT metabolized” in data set [5]; “Compound metabolized” in data set [19]; “Compound NOT metabolized” in data set [6]; “Compound metabolized” in data set [9]; “Compound metabolized” in [10]; “Compound NOT metabolized” in [11]. The figures for the “Bacterial Biotransformation” value in data set [12], in data set [16] and in [17] were “Compound NOT metabolized”, “Compound metabolized” and “Compound NOT metabolized”, respectively.
On to `Cc1nc2n(c(=O)c1CCN1CCC(c3noc4cc(F)ccc34)CC1)CCCC2O` (stereo not given) [PALIPERIDONE], for which the “Bacterial Biotransformation” value in [1] is reported as “Compound metabolized”; in data set [2] it was “Compound metabolized”; in data set [3], “Compound metabolized”; in data set [4], “Compound NOT metabolized”; in data set [20] it was “Compound NOT metabolized”; in data set [5], “Compound metabolized”. The “Bacterial Biotransformation” value in data set [19], in data set [6], in data set [7], in data set [8], in data set [9] and in [10] was “Compound metabolized” in each case. The “Bacterial Biotransformation” value is listed as “Compound metabolized” in [11]; “Compound metabolized” in [12]; “Compound metabolized” in [13]; “Compound metabolized” in data set [14]; “Compound NOT metabolized” in data set [15]; “Compound NOT metabolized” in data set [16]. Moreover, in data set [17], the “Bacterial Biotransformation” value was “Compound NOT metabolized”.
Take `CC(=O)SCC(Cc1ccccc1)C(=O)NCC(=O)OCc1ccccc1` (stereo not given) [RACECADOTRIL]: the “Bacterial Biotransformation” value in data set [1] is given as “Compound metabolized”; in data set [2] it was “Compound NOT metabolized”; in [3] it was “Compound metabolized”; in data set [4] it was “Compound metabolized”; in data set [20] it was “Compound metabolized”; in data set [5], “Compound metabolized”. For the same molecule, the “Bacterial Biotransformation” value in data set [19] is reported as “Compound metabolized”; in data set [6], “Compound metabolized”; in data set [7] it was “Compound NOT metabolized”; in data set [8] it was “Compound metabolized”; in [9], “Compound NOT metabolized”; in [10] it was “Compound NOT metabolized”. Besides, the “Bacterial Biotransformation” value in data set [11] is recorded as “Compound NOT metabolized”; in [14], “Compound metabolized”; in data set [15], “Compound metabolized”; in data set [16] it was “Compound metabolized”; in data set [17], “Compound metabolized”.
Regarding `NS(=O)(=O)c1cc2c(cc1Cl)N=C(CSCc1ccccc1)NS2(=O)=O` [BENZTHIAZIDE], the “Bacterial Biotransformation” value in data set [1], in [2], in data set [3], in data set [4], in data set [20] and in data set [18] was “Compound NOT metabolized” throughout. For the same molecule, the “Bacterial Biotransformation” value in [6] is listed as “Compound metabolized”; in [8] it was “Compound NOT metabolized”; in data set [9], “Compound NOT metabolized”; in [10], “Compound NOT metabolized”; in data set [12] it was “Compound NOT metabolized”; in data set [13], “Compound NOT metabolized”. The “Bacterial Biotransformation” value in [14], in [15], in [16] and in [17] was “Compound NOT metabolized” in each case.
